Converted amounts (≈) assume the structure as drawn. Counter-ions that a name gives are not always drawn. Like-named read-outs stand apart in the source and are kept apart here.
Tests used:
Assay type in all cases: cell-based
[1] = test system: Escherichia coli ATCC 25922; test: Evaluation test for disinfecting effect, broth dilution method CLSI(M7-A7)2006
Source text: (§1) The following test compounds were examined for the disinfecting activities against Pseudomonas aeruginosa, E.. Coli and staphylococcus aureus, according to a broth dilution method of "CLSI(M7-A7)2006" (Clinical and Laboratory Standards Institute, M7-A7, Methods for Dilution Antimicrobial Susceptibility Tests for Bacteria That Grow Aerobically; Approved Standard-Seventh Edition, 2006),
(§2) • Pseudomonas aeruginosa PAO1 • Pseudomonas aeruginosa ATCC 27853 • Escherichia coli ATCC 25922 • Staphylococcus aureus ATCC 29213 • Staphylococcus aureus Methicillin resistant (MRSA) ATCC 43300
(§3) Each of above-mentioned bacteria was inoculated in a TSB culture medium (Bacto TSB Broth, product of BD) for overnight cultivation at 37°C. The culture solution was applied to a TSB agar plate for about a 20-hour cultivation to form colonies. Three to five colonies were taken from the agar plate, and an average colony of them was inoculated in a 4mL TSB culture medium.. The colony was cultivated at 35°C until the number of microorganisms became 1 × 10^8 to 2 x 10^8 CFU/mL. The number of microorganisms with time was found by measuring changes in absorbency at 590nm of culture solution with time. When the turbidity became equivalent to 0.5 McFarland standard, it was determined that the number of microorganisms reached the target level = 1 × 10^8 to 2 × 10^8 CFU/mL.
(§4) The bacillus culture solution thus obtained was diluted 10-fold within 15 minutes, and a 5µL portion was inoculated in each well of an evaluation 96-well microplate. This 96-well microplate was a sterilized 96-well microplate with U-shaped bottoms (Falcon 35-3918: product of BD), and each well was filled with a 100µL portion of MH culture medium (BBL MH Broth: product of BD). Within 15 minutes after inoculation of the bacillus culture solutions, the test compounds were supplied to the well in a manner of 2-fold graded dilution. The cultivation was then carried out at 37°C for 18 hours.
(§5) The MIC was determined as follows. "S (susceptible)" indicates a concentration which caused 80% or more reduction in the diameter of the aggregation deposited in the bottom of the well, compared to when the test liquid is not used. "R (Resistant)" indicates a concentration that caused less than 80% reduction in diameter. The reduction was measured visually.. "I(Intermediate)" indicates a concentration that cannot be measured visually

[2] = test system: Pseudomonas aeruginosa ATCC 27853; test: as above
Source text: as §1, §2, §3, §4, §5

[3] = test system: Pseudomonas aeruginosa PAO1; test: as above
Source text: as §1, §2, §3, §4, §5

[4] = test system: Staphylococcus aureus ATCC 29213; test: as above
Source text: as §1, §2, §3, §4, §5

[5] = test system: Staphylococcus aureus Methicillin resistant (MRSA) ATCC 43300; test: as above
Source text: as §1, §2, §3, §4, §5

[6] = test system: Porphyromonas gingivalis 381-strain (clinical strain); test: Evaluation test for biofilm formation inhibition effect against periodontitis pathogenic bacteria (flow cell system, HA disks, turbidity); conditions: for Mean OD Value: turbidity at 550 nm of biofilm peeled off HA disks; for inhibition at 100 µM: Porphyromonas gingivalis, 336 h, read-out: Biofilm Formation Inhibition Rate(%)
Method: As with Experiment Example 1, using the flow cell system of FIG. 1, an inhibitory effect against biofilm formation by periodontitis pathogenic bacteria was evaluated for each of the amide compounds produced in Production Examples 1, 3, 5, and 6 (Compounds 1a-1, 1b-1, 1c-1, 1c-2).
Periodontitis pathogenic bacteria Porphyromonas gingivalis 381-strain (clinical strain) was used..
A GAM culture medium containing hemin 5µg/L and menadione 1µg/L was used.
The 381-strain was inoculated in the GAM culture medium, and cultivated until stationary phase (OD550=1.8). Then the culture medium was diluted 20-fold by a fresh GAM culture medium containing the above-mentioned substances.
The test liquid was prepared by dissolving 100µM of each of the Compounds 1a-1, 1b-1, 1c-1, or 1c-2 according to Production Examples 1, 3, 5 and 6 and 100µM of Comparative Compounds 1 and 2 as comparative examples in dimethyl sulfoxide (DMSO), and supplying the resulting DMSO solutions to the above-mentioned bacterial suspensions so that the concentration of each compound becomes 0.1%(v/v).
A DMSO not containing the compound was used as a control test liquid.
The glass cell (4) of the flow cell system (see FIG. 1) was replaced with a stainless cell (3 x 7 x 120mm), and 10 hydroxyapatite (HA) disks (6mm in diameter, 1mm in thickness) were placed in the cell. The HA disks had been subjected to salivary treatment overnight. Each of the test liquids and control test liquids was circulated in the system at a flow rate of 8mL/min for 14 days, Note that the test liquids and the control test liquids were replaced with fresh liquids every two days.
After the cultivation, the HA disks were dipped in 300µL of sterile distilled water, and treated by supersonic wave for 30 minutes at 4°C, The biofilms formed in the HA disks were peeled off and suspended in distilled water. Then, 100µL of the suspension liquid was measured for the turbidity with an absorptiometer (C07500 colorimeter, product of Funakoshi) (measurement wavelength = 550 nm).
A mean OD was found based on the resulting OD values, excluding the minimum and maximum values, Also, a mean value of the turbidities for the Control Test Liquids was found in the same manner as the control mean OD value. A biofilm formation inhibition rate (Inhibition Rate) was found by the following formula. Biofilm Formation Inhibition Rate (%) = […] [formula]

[7] = ATCC25922, 18 h, read-out: MIC (µg/mL) R
[8] = ATCC25922, 18 h, read-out: MIC (µg/mL) S
[9] = ATCC27853, 18 h, read-out: MIC (µg/mL) R
[10] = ATCC27853, 18 h, read-out: MIC (µg/mL) S
[11] = PAO1, 18 h, read-out: MIC (µg/mL) R
[12] = PAO1, 18 h, read-out: MIC (µg/mL) S
[13] = ATCC29213, 18 h, read-out: MIC (µg/mL) R
[14] = ATCC29213, 18 h, read-out: MIC (µg/mL) S

MIC [1, 7] [µg/mL]	MIC [1, 8] [µg/mL]	MIC [2, 9] [µg/mL]	MIC [2, 10] [µg/mL]	MIC [3, 11] [µg/mL]	MIC [3, 12] [µg/mL]	MIC [4, 13] [µg/mL]	MIC [4, 14] [µg/mL]	MIC ([5]; 18 h, read-out: MIC (µg/mL) R) [µg/mL]	MIC ([5]; 18 h, read-out: MIC (µg/mL) S) [µg/mL]	SMILES	Mean OD Value ([6]; 100µM, 14 days)	also measured
										CC1(C)S[C@@H]2[C@H](NC(=O)C(C(=O)O)c3ccccc3)C(=O)N2[C@H]1C(=O)O (some centres unmarked) [CBPC, Carbenicillin]		MIC ([1]; ATCC25922, I (Intermediate): concentration that cannot be measured visually, 37°C, 18 hours, read-out: MIC (µg/mL) I): 16 µg/mL (≈ 42.3 µM); MIC ([1]; ATCC25922, R (Resistant): concentration that caused less than 80% reduction in diameter of the aggregation, 37°C, 18 hours, read-out: MIC (µg/mL) R): ≤ 8 µg/mL; MIC ([1]; ATCC25922, S (susceptible): concentration which caused 80% or more reduction in diameter of the aggregation, 37°C, 18 hours, read-out: MIC (µg/mL) S): ≥ 32 µg/mL; MIC ([2]; ATCC27853, I (Intermediate): concentration that cannot be measured visually, 37°C, 18 hours, read-out: MIC (µg/mL) I): 128 µg/mL (≈ 338 µM); MIC ([2]; ATCC27853, R (Resistant): concentration that caused less than 80% reduction in diameter of the aggregation, 37°C, 18 hours, read-out: MIC (µg/mL) R): ≤ 64 µg/mL; MIC ([2]; ATCC27853, S (susceptible): concentration which caused 80% or more reduction in diameter of the aggregation, 37°C, 18 hours, read-out: MIC (µg/mL) S): ≥ 256 µg/mL; MIC ([3]; PAO1, R (Resistant): concentration that caused less than 80% reduction in diameter of the aggregation, 37°C, 18 hours, read-out: MIC (µg/mL) R): ≤ 64 µg/mL; MIC ([3]; PAO1, S (susceptible): concentration which caused 80% or more reduction in diameter of the aggregation, 37°C, 18 hours, read-out: MIC (µg/mL) S): ≥ 128 µg/mL; MIC ([4]; ATCC29213, R (Resistant): concentration that caused less than 80% reduction in diameter of the aggregation, 37°C, 18 hours, read-out: MIC (µg/mL) R): ≤ 8 µg/mL; MIC ([4]; ATCC29213, S (susceptible): concentration which caused 80% or more reduction in diameter of the aggregation, 37°C, 18 hours, read-out: MIC (µg/mL) S): ≥ 16 µg/mL; MIC ([5]; I (Intermediate): concentration that cannot be measured visually, 37°C, 18 hours, read-out: MIC (µg/mL) I): 32 µg/mL (≈ 84.6 µM); MIC ([5]; R (Resistant): concentration that caused less than 80% reduction in diameter of the aggregation, 37°C, 18 hours, read-out: MIC (µg/mL) R): ≤ 16 µg/mL; MIC ([5]; S (susceptible): concentration which caused 80% or more reduction in diameter of the aggregation, 37°C, 18 hours, read-out: MIC (µg/mL) S): ≥ 64 µg/mL
										CCCCCCCCCCCC(=O)NC1CCNCC1 [Compound 1b-1, N-(piperidin-4-yl) dodecanoyl amide]	0.32	inhibition at 100 µM [6]: 19.1%
≤ 128	≥ 256	≤ 512	≥ 1020	≤ 512	≥ 1020	≤ 128	≥ 256	≤ 128	≥ 256	CCCCCCCCCC(=O)NC1CCNC1 (centres unmarked) [Hydrochloride salt of Compound 1a-2, N-(pyrrolidin-3-yl) decanoyl amide]		
										CCCCCCCCCCCC(=O)NN1CCCC1 [Compound 1c-1, N-(pyrrolidin-1-yl) dodecanoyl amide]	0.522	inhibition at 100 µM ([6]; 100µM, 14 days, relative to control test liquid (Mean Comparison OD Value)): 11%
≤ 8	≥ 16	≤ 32	≥ 128	≤ 32	≥ 128	≤ 4	≥ 16	≤ 4	≥ 16	CCCCCCCCCCCC(=O)NC1CCNCC1 [Hydrochloride salt of Compound 1b-1, N-(piperidin-4-yl) dodecanoyl amide]		MIC ([2]; ATCC27853, 18 h, read-out: MIC (µg/mL) I): 64 µg/mL; MIC ([3]; PAO1, 18 h, read-out: MIC (µg/mL) I): 64 µg/mL; MIC ([4]; ATCC29213, 18 h, read-out: MIC (µg/mL) I): 8 µg/mL; MIC ([5]; 18 h, read-out: MIC (µg/mL) I): 8 µg/mL

— patent EP2077260B1, “AMIDE COMPOUND OR SALT THEREOF, AND BIOFILM FORMATION INHIBITOR, BIOFILM REMOVER AND BACTERICIDE EACH USING THE AMIDE COMPOUND OR SALT THEREOF” (The University of Tokyo, priority 2006, dated 2008)
